Measurements: patent US20230117034A1, “PYRAZOLOTRIAZINES” (Bayer Aktiengesellschaft, priority 2019, published 2023)

Tests used:
CDK9/CycT1 = target: T1, CDK9/CycT1 (Homo sapiens, UniProt P50750); assay: CDK9/CycT1 high ATP kinase assay (TR-FRET, 2 mM ATP); type: biochemical; settings: 2 mM ATP (high ATP); median; read-out: CDK9/CyclinT1, 2 mM ATP (high ATP), IC50 (median)
T1 construct: Recombinant full-length His-tagged human CDK9 and CycT1; purchased Life Technologies PV4131; host or cells: insect cells
T1 sequence (P50750 whole entry): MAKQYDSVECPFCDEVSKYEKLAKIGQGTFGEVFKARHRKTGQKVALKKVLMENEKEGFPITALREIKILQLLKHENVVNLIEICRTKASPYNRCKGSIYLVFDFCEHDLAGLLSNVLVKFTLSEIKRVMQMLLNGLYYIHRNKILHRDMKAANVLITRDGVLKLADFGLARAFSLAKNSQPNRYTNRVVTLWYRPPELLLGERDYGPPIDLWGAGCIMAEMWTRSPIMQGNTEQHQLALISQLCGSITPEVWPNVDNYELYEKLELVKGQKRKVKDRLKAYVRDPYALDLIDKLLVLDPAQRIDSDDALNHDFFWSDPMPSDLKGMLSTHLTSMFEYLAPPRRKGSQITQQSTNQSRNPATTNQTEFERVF
T1 sequence (O60563 whole entry partner): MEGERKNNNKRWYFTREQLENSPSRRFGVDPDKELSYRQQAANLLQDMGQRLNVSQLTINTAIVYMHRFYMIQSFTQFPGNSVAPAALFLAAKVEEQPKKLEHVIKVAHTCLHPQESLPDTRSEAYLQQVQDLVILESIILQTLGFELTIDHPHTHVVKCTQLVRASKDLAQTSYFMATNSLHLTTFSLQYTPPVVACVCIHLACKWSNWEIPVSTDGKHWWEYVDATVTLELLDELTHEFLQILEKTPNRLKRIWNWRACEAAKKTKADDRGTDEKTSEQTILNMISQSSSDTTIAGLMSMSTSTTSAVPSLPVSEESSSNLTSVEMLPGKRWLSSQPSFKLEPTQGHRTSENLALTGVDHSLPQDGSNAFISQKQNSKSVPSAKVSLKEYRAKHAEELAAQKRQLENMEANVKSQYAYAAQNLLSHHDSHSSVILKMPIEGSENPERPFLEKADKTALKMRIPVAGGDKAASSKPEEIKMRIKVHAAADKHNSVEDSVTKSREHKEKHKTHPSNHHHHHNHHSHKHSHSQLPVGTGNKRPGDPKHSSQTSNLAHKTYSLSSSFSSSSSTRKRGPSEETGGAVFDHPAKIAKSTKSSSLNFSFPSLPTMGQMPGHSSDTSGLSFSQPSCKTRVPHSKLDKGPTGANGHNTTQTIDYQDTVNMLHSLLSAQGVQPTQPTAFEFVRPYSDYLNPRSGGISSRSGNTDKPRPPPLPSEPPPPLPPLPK
Method in brief: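 Full-length His-tagged human CDK9/CycT1 (insect cell, ~0.5 μg/mL) preincubated 15 min at 22 °C with compound in Tris pH 8.0, MgCl2, DTT buffer before reaction with biotinylated peptide substrate at high ATP (2 mM).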

[1] = target: T2, CDK12 (nuclear staining in CAL-120 cells) (Homo sapiens, UniProt Q9NYV4); assay: CDK12 nuclear protein level: immunofluorescence/high content analysis (CAL-120); type: cell-based; settings: for DC50: CAL-120 cells, 24 h, immunofluorescence, 50% reduction of nuclear CDK12 staining intensity, median, read-out: CDK12 degradation IF, DC50- [mol/l] (median); for (IC50 CDK12 high ATP) to (Degradation DC50 CDK12) ratio: ratio of IC50 CDK12 high ATP kinase assay to DC50 CDK12 degradation (IF, CAL-120)
T2 construct: endogenous in cells; host or cells: CAL-120 human breast cancer cells (DSMZ ACC 459)
T2 sequence (Q9NYV4 whole entry): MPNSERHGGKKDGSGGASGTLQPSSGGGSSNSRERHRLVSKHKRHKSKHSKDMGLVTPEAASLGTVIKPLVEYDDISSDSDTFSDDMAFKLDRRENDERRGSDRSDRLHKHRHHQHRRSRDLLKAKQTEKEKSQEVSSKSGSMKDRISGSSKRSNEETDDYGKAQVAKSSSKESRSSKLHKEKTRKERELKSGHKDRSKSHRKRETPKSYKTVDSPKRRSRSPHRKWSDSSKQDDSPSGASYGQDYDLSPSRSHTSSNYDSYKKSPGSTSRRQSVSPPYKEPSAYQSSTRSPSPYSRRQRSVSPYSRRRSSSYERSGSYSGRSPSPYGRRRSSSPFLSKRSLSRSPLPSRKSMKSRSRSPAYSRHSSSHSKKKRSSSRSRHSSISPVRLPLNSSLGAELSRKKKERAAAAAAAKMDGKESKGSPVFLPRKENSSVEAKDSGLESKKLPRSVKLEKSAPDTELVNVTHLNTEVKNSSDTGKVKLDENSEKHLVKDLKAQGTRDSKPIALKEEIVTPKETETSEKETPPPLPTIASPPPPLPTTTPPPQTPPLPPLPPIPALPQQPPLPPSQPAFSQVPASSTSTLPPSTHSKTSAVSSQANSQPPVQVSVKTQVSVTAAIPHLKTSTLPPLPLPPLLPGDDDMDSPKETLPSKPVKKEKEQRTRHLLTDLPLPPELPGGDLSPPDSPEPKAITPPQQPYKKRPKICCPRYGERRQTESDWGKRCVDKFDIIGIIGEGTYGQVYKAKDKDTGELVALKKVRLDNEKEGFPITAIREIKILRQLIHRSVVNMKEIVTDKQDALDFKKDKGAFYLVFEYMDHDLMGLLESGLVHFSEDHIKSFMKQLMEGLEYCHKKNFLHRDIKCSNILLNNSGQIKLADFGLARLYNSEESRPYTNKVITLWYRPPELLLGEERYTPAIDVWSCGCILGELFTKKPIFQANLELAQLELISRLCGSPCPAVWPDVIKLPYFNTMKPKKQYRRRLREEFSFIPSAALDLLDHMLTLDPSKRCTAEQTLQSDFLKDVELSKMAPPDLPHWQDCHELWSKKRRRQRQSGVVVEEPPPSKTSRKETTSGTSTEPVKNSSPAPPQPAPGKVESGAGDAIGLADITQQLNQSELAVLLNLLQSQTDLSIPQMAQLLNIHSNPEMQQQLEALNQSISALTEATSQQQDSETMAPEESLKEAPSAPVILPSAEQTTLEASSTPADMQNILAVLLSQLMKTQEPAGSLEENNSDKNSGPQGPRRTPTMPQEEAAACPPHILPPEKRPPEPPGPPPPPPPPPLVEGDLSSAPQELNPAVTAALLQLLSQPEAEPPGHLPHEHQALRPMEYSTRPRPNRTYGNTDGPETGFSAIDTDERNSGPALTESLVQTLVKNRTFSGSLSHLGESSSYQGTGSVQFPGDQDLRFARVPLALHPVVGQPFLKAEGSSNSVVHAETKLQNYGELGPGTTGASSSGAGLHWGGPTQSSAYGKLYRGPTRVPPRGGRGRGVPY
T2 sequence (O75909 whole entry partner): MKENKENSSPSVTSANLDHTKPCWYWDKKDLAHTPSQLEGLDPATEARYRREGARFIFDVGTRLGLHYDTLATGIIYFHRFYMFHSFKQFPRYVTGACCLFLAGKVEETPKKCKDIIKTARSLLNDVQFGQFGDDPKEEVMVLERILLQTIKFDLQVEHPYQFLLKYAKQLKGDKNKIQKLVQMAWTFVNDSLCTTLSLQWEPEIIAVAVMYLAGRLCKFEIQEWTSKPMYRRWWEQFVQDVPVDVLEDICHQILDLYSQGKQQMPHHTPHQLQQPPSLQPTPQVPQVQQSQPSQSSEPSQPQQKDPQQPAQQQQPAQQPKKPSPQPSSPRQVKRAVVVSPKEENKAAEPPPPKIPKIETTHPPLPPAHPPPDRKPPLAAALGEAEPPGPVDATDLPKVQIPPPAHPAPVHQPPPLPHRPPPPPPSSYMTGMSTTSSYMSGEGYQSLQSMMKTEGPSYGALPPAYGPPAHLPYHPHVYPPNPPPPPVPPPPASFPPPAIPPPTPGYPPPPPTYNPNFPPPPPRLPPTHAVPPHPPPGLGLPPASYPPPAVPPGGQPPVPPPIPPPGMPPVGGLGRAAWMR
Method in brief: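 CAL-120 cells were treated with compound for 24 h at 37 °C, fixed with PFA and immunostained for CDK12. Nuclear CDK12 intensity was quantified by automated image analysis and normalized to DMSO and control. DC50 is the concentration giving 50% reduction of nuclear staining.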

[2] = system: BRCA1 mRNA expression in MDA-MB-231 cells; assay: qRT-PCR assay: BRCA1 mRNA expression in MDA-MB-231; type: cell-based, human; settings: Homo sapiens, MDA-MB-231, Inhibition of BRCA1 mRNA expression in MDA-MB-231 cells; median; read-out: RTqPCR-MDA-MB-231, IC50, BRCA1 (median)
Method in brief: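 Read-out is RT-qPCR with expression normalised to the GAPDH housekeeping gene. Before RNA isolation, plated cells (200,000 per well, 24 h attachment) received test substances continuously over 24 h, and 600 ng of RNA served as cDNA template.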

CCc1cnn2c(NCc3nc4c(F)c(F)ccc4[nH]3)nc(N3CCN(C)CC3)nc12.O=CO [Example 435, formic acid N-[(4,5-difluoro-1H-benzimidazol-2-yl)methyl]-8-ethyl-2-(4-methylpiperazin-1-yl)pyrazolo[1,5-a][1,3,5]triazin-4-amine]
IC50 (CDK9/CycT1): > 20000 nM
DC50 [1]: 0.591 nM
(IC50 CDK12 high ATP) to (Degradation DC50 CDK12) ratio [1]: 9674
IC50 [2]: 0.959 nM

Brc1cnn2c(NCc3ncc(-c4cccnc4)[nH]3)nc(N3CCOCC3)nc12 [Example 84, 8-bromo-2-(morpholin-4-yl)-N-{[5-(pyridin-3-yl)-1H-imidazol-2-yl]methyl}pyrazolo[1,5-a][1,3,5]triazin-4-amine]
IC50 (CDK9/CycT1): 3440 nM
DC50 [1]: 21.2 nM
(IC50 CDK12 high ATP) to (Degradation DC50 CDK12) ratio [1]: 98
IC50 [2]: 118 nM

CC(C)c1cnn2c(NCc3nc4ccccc4[nH]3)nc(N3CCN(C)CC3)nc12 [Example 2, N-[(1H-benzimidazol-2-yl)methyl]-2-(4-methylpiperazin-1-yl)-8-(propan-2-yl)pyrazolo[1,5-a][1,3,5]triazin-4-amine]
IC50 (CDK9/CycT1): > 20000 nM
DC50 [1]: 8.46 nM
(IC50 CDK12 high ATP) to (Degradation DC50 CDK12) ratio [1]: >2365
IC50 [2]: 20.8 nM

Clc1ccc(-c2cnc(CNc3nc(N4CCOCC4)nc4c(Br)cnn34)[nH]2)cc1 [Example 72, 8-bromo-N-{[5-(4-chlorophenyl)-1H-imidazol-2-yl]methyl}-2-(morpholin-4-yl)pyrazolo[1,5-a][1,3,5]triazin-4-amine]
IC50 (CDK9/CycT1): 6720 nM
DC50 [1]: 10 nM
(IC50 CDK12 high ATP) to (Degradation DC50 CDK12) ratio [1]: 55
IC50 [2]: 38.6 nM

Brc1cnn2c(NCc3nnc(-c4ccccc4)[nH]3)nc(N3CC4(COC4)C3)nc12 [Example 65, 8-bromo-2-(2-oxa-6-azaspiro[3.3]heptan-6-yl)-N-[(5-phenyl-4H-1,2,4-triazol-3-yl)methyl]pyrazolo[1,5-a][1,3,5]triazin-4-amine]
IC50 (CDK9/CycT1): > 5710 nM
DC50 [1]: 4.15 nM
(IC50 CDK12 high ATP) to (Degradation DC50 CDK12) ratio [1]: 245
IC50 [2]: 14.4 nM

COC1CCN(c2nc(NCc3nc4ccccc4[nH]3)n3ncc(Br)c3n2)CC1 [Example 62, N-[(1H-benzimidazol-2-yl)methyl]-8-bromo-2-(4-methoxypiperidin-1-yl)pyrazolo[1,5-a][1,3,5]triazin-4-amine]
IC50 (CDK9/CycT1): > 20000 nM
DC50 [1]: 10 nM
(IC50 CDK12 high ATP) to (Degradation DC50 CDK12) ratio [1]: 569
IC50 [2]: 37.7 nM

CC1(C)CN(c2nc(NCc3nnc(-c4ccccc4)[nH]3)n3ncc(Br)c3n2)CCO1 [Example 68, 8-bromo-2-(2,2-dimethylmorpholin-4-yl)-N-[(5-phenyl-4H-1,2,4-triazol-3-yl)methyl]pyrazolo[1,5-a][1,3,5]triazin-4-amine]
IC50 (CDK9/CycT1): 5340 nM
DC50 [1]: 13.3 nM
(IC50 CDK12 high ATP) to (Degradation DC50 CDK12) ratio [1]: 415
IC50 [2]: 43.4 nM

Fc1ccc(-c2cnc(CNc3nc(N4CCOCC4)nc4c(Br)cnn34)[nH]2)cc1 [Example 66, 8-bromo-N-{[5-(4-fluorophenyl)-1H-imidazol-2-yl]methyl}-2-(morpholin-4-yl)pyrazolo[1,5-a][1,3,5]triazin-4-amine]
IC50 (CDK9/CycT1): 4480 nM
DC50 [1]: 130 nM
(IC50 CDK12 high ATP) to (Degradation DC50 CDK12) ratio [1]: >44
IC50 [2]: 624 nM

OCC1COCCN1c1nc(NCc2nc3ccccc3[nH]2)n2ncc(Br)c2n1 (stereo not drawn) [Example 67, (4-{4-[(1H-benzimidazol-2-ylmethyl)amino]-8-bromopyrazolo[1,5-a][1,3,5]triazin-2-yl}morpholin-3-yl)methanol]
IC50 (CDK9/CycT1): > 19400 nM
DC50 [1]: 3.77 nM
(IC50 CDK12 high ATP) to (Degradation DC50 CDK12) ratio [1]: 727
IC50 [2]: 24.8 nM

c1ccc2[nH]c(CNc3nc(N4CCOCC4)nc4c(C5CC5)cnn34)nc2c1 [Example 92, N-[(1H-benzimidazol-2-yl)methyl]-8-cyclopropyl-2-(morpholin-4-yl)pyrazolo[1,5-a][1,3,5]triazin-4-amine]
IC50 (CDK9/CycT1): > 20000 nM
DC50 [1]: 2.36 nM
(IC50 CDK12 high ATP) to (Degradation DC50 CDK12) ratio [1]: 1378
IC50 [2]: 13.3 nM

COc1cccc(-c2cnc(CNc3nc(N4CCOCC4)nc4c(Br)cnn34)[nH]2)c1 [Example 80, 8-bromo-N-{[5-(3-methoxyphenyl)-1H-imidazol-2-yl]methyl}-2-(morpholin-4-yl)pyrazolo[1,5-a][1,3,5]triazin-4-amine]
IC50 (CDK9/CycT1): 5430 nM
DC50 [1]: 4.28 nM
(IC50 CDK12 high ATP) to (Degradation DC50 CDK12) ratio [1]: 276
IC50 [2]: 18.3 nM

Fc1ccc2[nH]c(CNc3nc(N4CCOCC4)nc4c(-c5cnn(C(F)F)c5)cnn34)nc2c1F [Example 422, N-[(4,5-difluoro-1H-benzimidazol-2-yl)methyl]-8-[1-(difluoromethyl)-1H-pyrazol-4-yl]-2-(morpholin-4-yl)pyrazolo[1,5-a][1,3,5]triazin-4-amine]
IC50 (CDK9/CycT1): > 20000 nM
DC50 [1]: 6.81 nM
(IC50 CDK12 high ATP) to (Degradation DC50 CDK12) ratio [1]: 239
IC50 [2]: 7.43 nM

COC(=O)C1CCN(c2nc(NCc3nc4ccccc4[nH]3)n3ncc(Br)c3n2)CC1 [Example 63, methyl 1-(4-{[(1H-benzimidazol-2-yl)methyl]amino}-8-bromopyrazolo[1,5-a][1,3,5]triazin-2-yl)piperidine-4-carboxylate]
IC50 (CDK9/CycT1): > 20000 nM
DC50 [1]: 20.7 nM
(IC50 CDK12 high ATP) to (Degradation DC50 CDK12) ratio [1]: 556
IC50 [2]: 341 nM

CC(C)c1cnn2c(NCc3nc4ccccc4[nH]3)nc(N3CCOC(C)(C)C3)nc12 [Example 12, N-[(1H-benzimidazol-2-yl)methyl]-2-(2,2-dimethylmorpholin-4-yl)-8-(propan-2-yl)pyrazolo[1,5-a][1,3,5]triazin-4-amine]
IC50 (CDK9/CycT1): > 20000 nM
DC50 [1]: 42.7 nM
(IC50 CDK12 high ATP) to (Degradation DC50 CDK12) ratio [1]: 399
IC50 [2]: 117 nM

CC(C)c1cnn2c(NCc3nc4ccccc4[nH]3)nc(N3CCOCC3)nc12 [Example 1, N-[(1H-benzimidazol-2-yl)methyl]-2-(morpholin-4-yl)-8-(propan-2-yl)pyrazolo[1,5-a][1,3,5]triazin-4-amine]
IC50 (CDK9/CycT1): > 20000 nM
DC50 [1]: 11.1 nM
(IC50 CDK12 high ATP) to (Degradation DC50 CDK12) ratio [1]: 537
IC50 [2]: 16.6 nM

Fc1ccccc1-c1cnc(CNc2nc(N3CCOCC3)nc3c(Br)cnn23)[nH]1 [Example 86, 8-bromo-N-{[5-(2-fluorophenyl)-1H-imidazol-2-yl]methyl}-2-(morpholin-4-yl)pyrazolo[1,5-a][1,3,5]triazin-4-amine]
IC50 (CDK9/CycT1): 5270 nM
DC50 [1]: 3.95 nM
(IC50 CDK12 high ATP) to (Degradation DC50 CDK12) ratio [1]: 478
IC50 [2]: 17.1 nM

OC[C@@H]1CCCCN1c1nc(NCc2nnc(-c3ccccc3)[nH]2)n2ncc(Br)c2n1 [Example 70, [(2S)-1-(8-bromo-4-{[(5-phenyl-4H-1,2,4-triazol-3-yl)methyl]amino}pyrazolo[1,5-a][1,3,5]triazin-2-yl)piperidin-2-yl]methanol]
IC50 (CDK9/CycT1): 569 nM
DC50 [1]: 7.9 nM
(IC50 CDK12 high ATP) to (Degradation DC50 CDK12) ratio [1]: 79
IC50 [2]: 55.9 nM

Brc1cnn2c(NCc3ncc(-c4ccccn4)[nH]3)nc(N3CCOCC3)nc12 [Example 90, 8-bromo-2-(morpholin-4-yl)-N-{[5-(pyridin-2-yl)-1H-imidazol-2-yl]methyl}pyrazolo[1,5-a][1,3,5]triazin-4-amine]
IC50 (CDK9/CycT1): 9350 nM
DC50 [1]: 4.05 nM
(IC50 CDK12 high ATP) to (Degradation DC50 CDK12) ratio [1]: 1092
IC50 [2]: 13.7 nM
